Experiment [1] deals with NMDA receptor. The conditions noted are these: Carter et al 1988; cited from earlier work.
For experiment [2], the system named is sigma receptor. The note with it: cited from earlier work.
The target of experiment [3] is sigma receptor (Cavia porcellus, UniProt Q60492). As to the kind of experiment: biochemical.
Sequence of sigma receptor (Cavia porcellus, UniProt Q60492) (Q60492 whole entry): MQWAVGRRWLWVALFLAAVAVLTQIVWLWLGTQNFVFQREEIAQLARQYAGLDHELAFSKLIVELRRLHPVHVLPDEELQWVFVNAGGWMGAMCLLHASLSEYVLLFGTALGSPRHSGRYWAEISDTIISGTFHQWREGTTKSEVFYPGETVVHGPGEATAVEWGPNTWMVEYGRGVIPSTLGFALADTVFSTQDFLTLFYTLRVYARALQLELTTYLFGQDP

“1-(4-chlorophenyl)-2-[1-(4-fluorophenyl)piperidinyl]ethanol”: in experiment [1], the NMDA receptor antagonism entry is “non-competitive NMDA receptor antagonists”.
Regarding `CN(CCc1ccc(Cl)c(Cl)c1)[C@@H]1CCCC[C@@H]1N1CCCC1` (single isomer, unassigned) [cis-N-[3,4-dichlorophenylethyl]-N-methyl-2-(1-pyrrolidinyl)cyclohexylamine], the “sigma ligand potency and selectivity” value in experiment [2] is “extremely potent and selective ligands for the sigma receptor”.
As for `CN(CCc1ccc(Cl)c(Cl)c1)CC1CCCCN1C` (stereo not drawn) [Compound 2, 2-[N-[2-(3,4-Dichlorophenyl)ethyl]-N-(methyl)aminomethyl]-1-(methyl)piperidine], the Ki in experiment [3] stood at 3.69 ± 0.85 nM.
Same read-out and setting: the figure for `CCN1CCCC1CNCCc1ccc(Cl)c(Cl)c1` (stereo not drawn) [Compound 3, 2-[N-(3,4-dichlorophenylethyl)aminomethyl]-1-(ethyl)pyrrolidine] is 16 ± 3.62 nM.
The same measure, in the same setting: the figure for `CCN1CCCC1CN(C)CCc1ccc(Cl)c(Cl)c1` (stereo not drawn) [Compound 4, 2-[N-(3,4-Dichlorophenylethyl)-N-(methyl)aminomethyl]-1-(ethyl)pyrrolidine] is 1.48 ± 0.37 nM.
As to `CC(C(O)c1ccc(O)cc1)N1CCC(Cc2ccccc2)CC1` (stereo not drawn) [ifenprodil], the NMDA receptor antagonism result in experiment [1] is recorded as “non-competitive NMDA receptor antagonists”.

As a reminder, the Ki is a dissociation constant, usually derived from enzyme kinetics or from competition with a known ligand. A high value points to lower affinity.

These data come from patent US5571832A (priority 1994, dated 1996).
